In one assay the target is T1, trypsin (Bos taurus, UniProt P00760).
T1 sequence (P00760 24-246): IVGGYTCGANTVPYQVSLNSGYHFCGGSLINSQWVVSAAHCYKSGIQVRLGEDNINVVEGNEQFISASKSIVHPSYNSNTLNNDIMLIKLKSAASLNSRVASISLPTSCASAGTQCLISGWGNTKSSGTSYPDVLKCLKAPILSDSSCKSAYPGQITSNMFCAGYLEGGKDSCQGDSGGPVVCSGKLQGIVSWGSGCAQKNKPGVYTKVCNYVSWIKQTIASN
Put plainly: Inhibitory effects on trypsin (hydrolysis of p-tosylarginine methyl ester). In kind it is biochemical. Particulars: 37° C., 10 minutes; concentration not given. The protocol:
In particular, inhibitory effects of the compounds on hydrolysis of p-tosylarginine methyl ester by trypsin were examined (incubated at 37° C. for 10 minutes).

Another assay has as its target chymotrypsin (Bos taurus, UniProt P00766). The assay is described as follows: Inhibitory effects on chymotrypsin (hydrolysis of N-acetyl-L-tyrosine ethyl ester). In kind it is biochemical. Particulars: 37° C., 10 minutes; concentration not given. The protocol:
The compounds of the formula (I) have excellent inhibitory effects on protease. The inhibitory effects were determined by the following methods: Inhibitory effects on the compounds of chymotrypsin were determined according to the method described by M. […] In particular, inhibitory effects of the compounds on hydrolysis of N-acetyl-L-tyrosine ethyl ester by chymotrypsin were examined (incubated at 37° C. for 10 minutes).

The next assay has as its target thrombin (Bos taurus, UniProt P00735). The assay is described as follows: Inhibitory effects on thrombin (hydrolysis of p-tosylarginine methyl ester). In kind it is biochemical. Conditions: 37° C., 10 minutes; concentration not given. Here is the method:
The compounds of the formula (I) have excellent inhibitory effects on protease. The inhibitory effects were determined by the following methods:
Inhibitory effects of the compounds on thrombin were determined according to the method described by M. Muramatsu et al (The Journal of Biochemistry, Volume 65 (1), 17 (1969)). In particular, inhibitory effects of the compounds on hydrolysis of p-tosylarginine methyl ester by thrombin were examined (incubated at 37° C. for 10 minutes).

For another assay, the target named is urokinase (Homo sapiens, UniProt P00749). Put plainly: Inhibitory effects on urokinase (hydrolysis of N-acetylglycyl lysine methyl ester). In kind it is biochemical. Conditions: 37° C., 10 minutes; concentration not given. Here is the method:
The compounds of the formula (I) have excellent inhibitory effects on protease. The inhibitory effects were determined by the following methods: Inhibitory effects of the compounds on urokinase were determined according to the method described by A. J. Joeson et al (Throm. […]. 21, 259-272 (1969)). In particular, inhibitory effects of the compounds on hydrolysis of N-acetylglycyl lysine methyl ester by urokinase were determined (incubated at 37° C. for 10 minutes).

A further assay has as its system Shay ulcers. Put plainly: Shay ulcers (pylorus ligation). In kind it is in vivo, Male Sprague-Dawley strain rats. Particulars: for Ulcer Grade 0 (number of rats): 0=no lesion; for Ulcer Grade 1 (number of rats): 1=hemorrhagic suffusion; for Ulcer Grade 2 (number of rats): 2=1-5 small ulcers (<3 mm); for Ulcer Grade 3 (number of rats): 3=many small ulcers (more than 5) or 1 ulcer of marked size; for Ulcer Grade 4 (number of rats): 4=many ulcers of marked size; for Ulcer Grade 5 (number of rats): 5=perforated ulcer. The protocol: The rats were sacrificed 18 hours later by an overdose of ether and the stomach removed. The stomach was incised along the greater curvature and the surface area of each lesion in forestomach was measured by the naked eye. […] 4=many ulcers of marked size 5=perforated ulcer The test drugs were given intraperitoneally, immediately after pylorus ligation.

A further assay relates to acetic acid ulcers. Put plainly: Acetic acid ulcers. In kind it is in vivo, Male Sprague-Dawley strain rats. Conditions: for Ulcer Grade 1 (number of rats): ulcer area 0-10 mm^2; for Ulcer Grade 2 (number of rats): ulcer area 11-20 mm^2; for Ulcer Grade 3 (number of rats): ulcer area 21-30 mm^2; for Ulcer Grade 4 (number of rats): ulcer area 31-40 mm^2; for Ulcer Grade 5 (number of rats): ulcer area >40 mm^2. Here is the method:
Male Sprague-Dawley strain rats, weighing about 200 g were used. Under ether anesthesia 10% acetic acid solution (0.05 ml) was injected carefully between the serous membrane and the muscle near the pylorus, and the abdomen was closed. Thereafter, the animals were maintained under conditions and administered 1 ml/100 g of each test drug dissolved or suspended in 0.5% carboxymethylcellulose solution p.o. daily×10 starting from the next day of the operation. On the 11th day, the rats were sacrificed under ether anesthesia, and the stomachs were removed. The area of the ulcer was measured and graded into 5 degrees as an ulcer index according to the following method: […]

For another assay, the system named is plasmin. Particulars: A. Okano et al, J. Med. Chem., Vol. 15, No. 3, 247 (1972); cited from earlier work.
In the next assay the test system is ileum of a guinea pig. Put plainly: Anti-histamine effect: contraction of ileum induced by histamin dihydrochloride. Conditions: 1~5 μg; 10^-6 g/ml histamin dihydrochloride.
The test system of assay [1] is ileum of a guinea pig, sensitized with egg albumin. Put plainly: Contraction of ileum of a guinea pig sensitized with egg albumin, antigen-induced. Conditions: 0.50 μg; with 250 μg/ml egg albumin as antigen.
Assay [2] relates to carrageenin-induced inflammation. The assay is described as follows: Carrageenin-induced inflammation. Particulars: Rattus norvegicus, ip, read-out: ED50, inhibition of carrageenin-induced inflammation.

With `Cl.NC[C@H]1CC[C@H](C(=O)Oc2ccc(CCC(=O)O)cc2)CC1` [Compound A, 4(2hydroxycarbonylethyl)phenyl trans4-aminomethylcyclohexanecarboxylate hydrochloride, reference compound], the “Inhibition (%) Trypsin” value at trypsin is recorded as 65%. The “Inhibition (%) Chymotrypsin” value at chymotrypsin is 0%. Further, on thrombin, the “Inhibition (%) Thrombin” value stood at 30%. The “Inhibition (%) Urokinase” value at urokinase came to 32%. In the assay on Shay ulcers (150 mg/kg i.p.), the “Ulcer Grade 0 (number of rats)” value turned out to be 2, the “Ulcer Grade 1 (number of rats)” value is recorded as 0, the “Ulcer Grade 2 (number of rats)” value is recorded as 3 and the “Ulcer Grade 3 (number of rats)” value was found to be 1. Also, in the assay on Shay ulcers (150 mg/kg i.p.), the “Ulcer Grade 4 (number of rats)” value amounted to 4 and the “Ulcer Grade 5 (number of rats)” value is 0. Moreover, in the assay with Shay ulcers (300 mg/kg i.p.), the “Ulcer Grade 0 (number of rats)” value amounted to 6, the “Ulcer Grade 1 (number of rats)” value amounted to 0, the “Ulcer Grade 2 (number of rats)” value was 0 and the “Ulcer Grade 3 (number of rats)” value came to 1. For the same compound, in the assay on Shay ulcers (300 mg/kg i.p.), the “Ulcer Grade 4 (number of rats)” value came out at 2 and the “Ulcer Grade 5 (number of rats)” value is 1. In the assay with acetic acid ulcers (250 mg/kg p.o. daily×10), the “Ulcer Grade 1 (number of rats)” value is 4, the “Ulcer Grade 2 (number of rats)” value is given as 8, the “Ulcer Grade 3 (number of rats)” value is 3 and the “Ulcer Grade 4 (number of rats)” value worked out at 2. For the same compound, in the assay on acetic acid ulcers (250 mg/kg p.o. daily×10), the “Ulcer Grade 5 (number of rats)” value is given as 0. In the assay on acetic acid ulcers (300 mg/kg p.o. daily×10), the “Ulcer Grade 1 (number of rats)” value worked out at 2, the “Ulcer Grade 2 (number of rats)” value is 2, the “Ulcer Grade 3 (number of rats)” value came to 2 and the “Ulcer Grade 4 (number of rats)” value was determined as 1. Moreover, the “Ulcer Grade 5 (number of rats)” value in the assay on acetic acid ulcers (300 mg/kg p.o. daily×10) worked out at 1. Also, in the assay on acetic acid ulcers (500 mg/kg p.o. daily×10), the “Ulcer Grade 1 (number of rats)” value is 7, the “Ulcer Grade 2 (number of rats)” value stood at 6, the “Ulcer Grade 3 (number of rats)” value was 1 and the “Ulcer Grade 4 (number of rats)” value amounted to 0. Also, the “Ulcer Grade 5 (number of rats)” value in the assay with acetic acid ulcers (500 mg/kg p.o. daily×10) is on record as 1.
Turning to `NC[C@H]1CC[C@H](C(=O)O)CC1` [Tranexamic acid, trans-4-aminomethylcyclohexane carboxylic acid], the anti-plasmin effects result with plasmin is listed as “excellent anti-plasmin effects”.
For the compound `CCOC(=O)CCc1ccc(OC(=O)[C@H]2CC[C@H](CNC(=N)N)CC2)cc1` [Compound 8], the “Inhibition (%) Trypsin” value at trypsin stood at 51%. Moreover, at chymotrypsin, the “Inhibition (%) Chymotrypsin” value was 20%. At thrombin, the “Inhibition (%) Thrombin” value is 43%. In addition, the “Inhibition (%) Urokinase” value at urokinase amounted to 55%. Further, in the assay with Shay ulcers (200 mg/kg i.p.), the “Ulcer Grade 0 (number of rats)” value was determined as 4, the “Ulcer Grade 1 (number of rats)” value was 2, the “Ulcer Grade 2 (number of rats)” value is reported as 2 and the “Ulcer Grade 3 (number of rats)” value was 1. In addition, in the assay on Shay ulcers (200 mg/kg i.p.), the “Ulcer Grade 4 (number of rats)” value is 1 and the “Ulcer Grade 5 (number of rats)” value is on record as 0. Moreover, in the assay on acetic acid ulcers (300 mg/kg p.o. daily×10), the “Ulcer Grade 1 (number of rats)” value was 4, the “Ulcer Grade 2 (number of rats)” value is on record as 3, the “Ulcer Grade 3 (number of rats)” value was determined as 1 and the “Ulcer Grade 4 (number of rats)” value was determined as 0. The “Ulcer Grade 5 (number of rats)” value in the assay with acetic acid ulcers (300 mg/kg p.o. daily×10) worked out at 0.
In the case of `N=C(N)NCC1CCC(C(=O)O)CC1` (stereo not shown) [4-guanidinomethylcyclohexanecarboxylic acid], the anti-plasmin effects result in the assay on plasmin is listed as “little anti-plasmin effects”.
As for `Cl.N=C(N)NC[C@H]1CC[C@H](C(=O)Oc2ccccc2)CC1` [Compound 3], at trypsin, the “Inhibition (%) Trypsin” value is reported as 42%. For the same compound, on chymotrypsin, the “Inhibition (%) Chymotrypsin” value worked out at 48%. Besides, the “Inhibition (%) Thrombin” value at thrombin is reported as 30%. Further, the “Inhibition (%) Urokinase” value on urokinase amounted to 52%. Further, in the assay with Shay ulcers (400 mg/kg i.p.), the “Ulcer Grade 0 (number of rats)” value was found to be 11, the “Ulcer Grade 1 (number of rats)” value stood at 4, the “Ulcer Grade 2 (number of rats)” value is listed as 5 and the “Ulcer Grade 3 (number of rats)” value is reported as 0. Moreover, in the assay with Shay ulcers (400 mg/kg i.p.), the “Ulcer Grade 4 (number of rats)” value was found to be 0 and the “Ulcer Grade 5 (number of rats)” value was found to be 0. In the assay with ileum of a guinea pig, the “inhibition of the contraction of the ileum induced by histamin dihydrochloride” value was “inhibited completely”. In addition, the “inhibition of the contraction of the ileum sensitized with egg albumin” value in assay [1] is given as “inhibited completely”.
What is called ED50 is the dose at which the effect has come halfway, by size or by number of responders. Turning to `N=C(N)NC[C@H]1CC[C@H](C(=O)Oc2ccccc2)CC1`, in assay [2], the ED50 is approximately 200 mg/kg.

(Values after patent US4348410A, “Cyclohexane carboxylic acid derivatives” (Nippon Chemiphar Co., Ltd., priority 1979, dated 1982).)
